ChEMBL document CHEMBL3227947, “Quantitative structure-activity relationship of 5-(X-benzyl)-2,4-diaminopyrimidines inhibiting bovine liver dihydrofolate reductase” (J Med Chem, 1979)

Molecular target: T1, Dihydrofolate reductase (Bos taurus) (UniProt P00376)
T1 sequence (whole entry): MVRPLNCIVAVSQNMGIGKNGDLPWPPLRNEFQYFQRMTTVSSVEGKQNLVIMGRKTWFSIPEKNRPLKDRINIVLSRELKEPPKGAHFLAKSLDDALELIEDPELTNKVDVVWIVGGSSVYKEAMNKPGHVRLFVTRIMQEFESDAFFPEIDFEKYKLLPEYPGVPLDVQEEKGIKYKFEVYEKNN
Description: Inhibition of bovine liver dihydrofolate reductase using dihydrofolic acid as substrate

| log(1/I50) | Compound |
| --- | --- |
| 5.02 | COc1cccc(Cc2cnc(N)nc2N)c1 |
| 4.8 | Cc1ccc(Cc2cnc(N)nc2N)cc1 |
| 4.57 | Nc1ccc(Cc2cnc(N)nc2N)cc1 |
| 5.16 | CC(=O)Nc1ccc(Cc2cnc(N)nc2N)cc1[N+](=O)[O-] |
| 5.15 | COc1ccc(Cc2cnc(N)nc2N)cc1OC |
| 4.99 | Nc1ncc(Cc2ccc(OC(F)(F)F)cc2)c(N)n1 |
| 5.53 | Nc1ncc(Cc2cccc(C(F)(F)F)c2)c(N)n1 |
